# Laboratory results: US20220039390A1, “USE OF […] FOR C[…] VEGETATION IN BETA VULGARIS GROWING AREAS” (KWS SAAT SE & Co. KGaA, priority 2018, published 2022)
# Key:
# [1] = tested on: sugar beet (Beta vulgaris); assay: Glyphosate selection of mutagenized (EMS/ENU) M2 sugar beet plants, field spray then greenhouse treatment; type: in vivo; details: 600 g/ha glyphosate acid equivalent
# Excerpt: 6 kg seeds of sugar beet elite line T807 (3BT1760, MO population) were mutagenized with 0.5% EMS and 0.3% and 0.5%, respectively ENU, and subsequently drilled for steck production. Stecks were replanted for seed production occupying an area of 5.8 ha. M1 population sizes were 75,000 seed producing plants for EMS and 19,000 plants for ENU mutagenized seeds. The following M2 seed amounts (values given for purified seed) has been obtained: 240 kg for 0.5% EMS (idents A and B), 548 kg for 0.3% ENU (idents C and D), and 256 kg 0.5% ENU (idents E and F).
# 176 kg of idents A and B and 75 kg of idents C, D, E and F were sown on an approximately 15 ha spanning field site. Approximately 1 month after sowing, the entire field was sprayed with 0.88 I/ha ROUNDUP® MAX (680 g/kg glyphosate acid equivalent). Approximately 6 weeks later, plants surviving the glyphosate treatment were collected in the field, transplanted to pots and further cultivated in the greenhouses. Surviving plants were treated with 600 g/ha glyphosate acid equivalent about 2 months later. 172 plants survived that treatment in a very healthy stage without any signs of herbicide damage.
# In order to identify the causative mutation behind the observed herbicide resistance sequencing analyses have been performed. […]
# [2] = acid form, 25° C.; cited from earlier work
compound,measurement,setting,value
"O=C(O)CNCP(=O)(O)O [glyphosate, N-phosphonomethylglycine]",resistance conferred by heterozygous P179S mutation in BvEPSPS,"[1]; approx. 50% of standard field treatment level, based on screening and selection",complete resistance
same,plants that survived treatment in a very healthy stage without any signs of herbicide damage,[1]; potted greenhouse plants that had survived the ROUNDUP MAX field spray,172 plants
same,solubility in water,[2],1.16 % by weight
